Test results reported in ChEMBL document CHEMBL4715817, “Python Cathelicidin CATHPb1 Protects against Multidrug-Resistant Staphylococcal Infections by Antimicrobial-Immunomodulatory Duality” (J Med Chem, 2018).
In brackets after ≈: the same amount, converted by molar mass. Activity calls are given as the source filed them. No cut-off for these calls is given here. Peptide text beside a SMILES is read from it.

Assays:
Mus musculus [1] = test: Immunomodulatory activity in Kunming mouse infected with vancomycin-resistant Staphylococcus aureus assessed as decreased in TNF-alpha level in peritoneal lavage at 10 mg/kg, ip administered 24 hrs before infection by ELISA; assay type: functional, organism-based
Enterococcus faecalis = test: Antimicrobial activity against Enterococcus faecalis IS 981 incubated for 16 to 18 hrs by fluorescence microplate reader analysis; assay type: functional; conditions: time 16-18 hrs
[2] = biological target: Mitogen-activated protein kinase 1 and 3 (ERK2 and ERK1) (Mus musculus) (UniProt P63085+Q63844); test: Inhibition of LPS-induced phosphorylation of Erk1/2 in mouse peritoneal macrophage pretreated for 1 hr followed by LPS stimulation measured after 30 mins by Western blot analysis; assay type: tissue-based; conditions: dose 5-20 µg/ml, time 1.5 hrs
Sequence of Mitogen-activated protein kinase 1 and 3 (ERK2 and ERK1) (Mus musculus) (P63085 whole entry, looked up): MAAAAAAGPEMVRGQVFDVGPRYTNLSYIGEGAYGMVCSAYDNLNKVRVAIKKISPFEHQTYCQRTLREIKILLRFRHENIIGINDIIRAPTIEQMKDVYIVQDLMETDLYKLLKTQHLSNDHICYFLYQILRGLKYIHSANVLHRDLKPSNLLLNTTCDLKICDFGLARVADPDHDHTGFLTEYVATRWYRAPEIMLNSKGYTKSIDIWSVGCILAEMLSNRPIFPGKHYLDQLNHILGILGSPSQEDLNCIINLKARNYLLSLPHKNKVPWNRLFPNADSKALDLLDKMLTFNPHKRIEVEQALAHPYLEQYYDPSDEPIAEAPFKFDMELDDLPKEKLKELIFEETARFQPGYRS
Sequence of Mitogen-activated protein kinase 1 and 3 (ERK2 and ERK1) (Mus musculus) (Q63844 whole entry, looked up): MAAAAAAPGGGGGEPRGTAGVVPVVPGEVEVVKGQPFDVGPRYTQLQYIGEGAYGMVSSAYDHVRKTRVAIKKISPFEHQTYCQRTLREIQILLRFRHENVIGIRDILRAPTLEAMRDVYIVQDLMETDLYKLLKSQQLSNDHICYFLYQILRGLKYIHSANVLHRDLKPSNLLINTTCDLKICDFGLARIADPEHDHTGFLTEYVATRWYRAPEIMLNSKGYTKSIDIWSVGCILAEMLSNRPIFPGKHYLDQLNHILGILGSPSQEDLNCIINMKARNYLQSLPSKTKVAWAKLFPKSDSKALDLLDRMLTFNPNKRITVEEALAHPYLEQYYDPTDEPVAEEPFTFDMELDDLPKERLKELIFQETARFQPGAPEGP

Mus musculus [3] = test: Immunomodulatory activity in mouse assessed as increase number of inflammatory monocytes in peritoneal cavity at 10 mg/kg, ip measured after 5 to 24 hrs by flow cytometry; assay type: functional, organism-based; conditions: time 5-24 hrs
[4] = Toxicity in Kunming mouse assessed as effect on CXCL1/KC levels at 10 mg/kg, ip measured after 5 hrs by ELISA; assay type: organism-based; conditions: in vivo
[5] = Toxicity in Kunming mouse assessed as effect on MIP-2 levels at 10 mg/kg, ip measured after 5 hrs by ELISA; assay type: organism-based; conditions: in vivo
Candida albicans [6] = test: Antibiofilm activity against Candida albicans assessed as biofilm eradication at BIC-5 by XTT and crystal violet staining assay relative to control; assay type: functional
Mus musculus [7] = test: Immunomodulatory activity in Kunming mouse infected with vancomycin-resistant Staphylococcus aureus assessed as decreased in IL-6 level in peritoneal lavage at 10 mg/kg, ip administered 24 hrs before infection by ELISA; assay type: functional, organism-based
Neutrophil [8] = test: Immunomodulatory activity in neutrophils (unknown origin) assessed as inhibition of LPS-induced MCP-1 level at 5 to 20 ug/ml by ELISA; assay type: functional, cell-based; conditions: dose 5-20 µg/ml
Neutrophil [9] = test: Induction of ROS production in neutrophil (unknown origin) by fluorescence assay; assay type: functional, cell-based; conditions: dose 10-40 µg/ml
Macrophage [10] = test: Immunomodulatory activity in mouse peritoneal macrophage assessed as inhibition of LPS-induced TNF-alpha level measured after 6 hrs by qRT-PCR analysis; assay type: functional, tissue-based; conditions: dose 5-20 µg/ml
Mus musculus [11] = test: Immunomodulatory activity in Kunming mouse infected with vancomycin-resistant Staphylococcus aureus assessed as decreased in IL-6 level in peritoneal lavage at 10 mg/kg, ip administered 4 hrs after infection by ELISA; assay type: functional, organism-based
Mus musculus [12] = test: Immunomodulatory activity in Kunming mouse infected with vancomycin-resistant Staphylococcus aureus assessed as increased in IL-10 level in peritoneal lavage at 10 mg/kg, ip administered 4 hrs after infection by ELISA; assay type: functional, organism-based
Staphylococcus aureus [13] = test: Antibacterial activity against vancomycin-resistant Staphylococcus aureus assessed as bacterial growth inhibition in aqueous solution incubated upto 96 hrs; assay type: functional; conditions: time hrs <=96
Staphylococcus aureus [14] = test: In vivo antibacterial activity against vancomycin resistant Staphylococcus aureus infected in kunming mouse assessed as reduction in bacterial load in spleen at 10 mg/kg, ip administered 24 hrs before infection; assay type: functional, organism-based
Mus musculus [15] = test: Immunomodulatory activity in mouse assessed as increase […] of KC in peritoneal cavity at 10 mg/kg, ip measured after 5 to 24 hrs by ELISA; assay type: functional, organism-based; conditions: time 5-24 hrs
Staphylococcus aureus [16] = test: In vivo antibacterial activity against methicillin resistant Staphylococcus aureus IS 08032712 infected in kunming mouse assessed as increase in survival rate at 10 mg/kg, ip administered 4 hrs after infection and measured up to 7 days after infection; assay type: functional, organism-based; conditions: time day <=7
Neutrophil [17] = test: Immunomodulatory activity in neutrophils (unknown origin) assessed as inhibition of LPS-induced TNF-alpha level at 5 to 20 ug/ml by ELISA; assay type: functional, cell-based; conditions: dose 5-20 µg/ml
Pseudomonas aeruginosa = test: Antimicrobial activity against Pseudomonas aeruginosa IS 08031014 incubated for 16 to 18 hrs by fluorescence microplate reader analysis; assay type: functional; conditions: time 16-18 hrs
Macrophage [18] = test: Immunomodulatory activity in mouse peritoneal macrophage assessed as inhibition of LPS-induced MCP-1 level measured after 6 hrs by qRT-PCR analysis; assay type: functional, tissue-based; conditions: dose 5-20 µg/ml
Neutrophil [19] = test: Immunomodulatory activity in neutrophils (unknown origin) assessed as effect on IL-6 level at 20 ug/ml measured after 12 hrs by ELISA; assay type: functional, cell-based; conditions: dose 20.0 µg/ml
[20] = biological target: Mitogen-activated protein kinase 8/9 (Homo sapiens) (UniProt P45983+P45984); test: Inhibition of LPS-induced phosphorylation of Jnk1/2 in mouse peritoneal macrophage pretreated for 1 hr followed by LPS stimulation measured after 30 mins by Western blot analysis; assay type: tissue-based; conditions: dose 5-20 µg/ml, time 1.5 hrs
Sequence of Mitogen-activated protein kinase 8/9 (Homo sapiens) (P45983 whole entry, looked up): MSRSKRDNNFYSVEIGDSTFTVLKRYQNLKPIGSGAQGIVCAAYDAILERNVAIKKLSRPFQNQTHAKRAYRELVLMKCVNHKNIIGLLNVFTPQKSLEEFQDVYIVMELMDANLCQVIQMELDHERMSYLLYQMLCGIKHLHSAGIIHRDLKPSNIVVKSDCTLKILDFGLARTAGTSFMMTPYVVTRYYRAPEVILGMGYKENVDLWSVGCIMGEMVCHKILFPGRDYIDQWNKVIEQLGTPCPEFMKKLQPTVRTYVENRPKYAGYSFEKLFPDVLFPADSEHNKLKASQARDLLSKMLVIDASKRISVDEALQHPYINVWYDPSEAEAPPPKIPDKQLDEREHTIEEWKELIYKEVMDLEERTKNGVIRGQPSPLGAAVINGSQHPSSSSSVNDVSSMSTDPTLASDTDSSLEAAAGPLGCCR
Sequence of Mitogen-activated protein kinase 8/9 (Homo sapiens) (P45984 whole entry, looked up): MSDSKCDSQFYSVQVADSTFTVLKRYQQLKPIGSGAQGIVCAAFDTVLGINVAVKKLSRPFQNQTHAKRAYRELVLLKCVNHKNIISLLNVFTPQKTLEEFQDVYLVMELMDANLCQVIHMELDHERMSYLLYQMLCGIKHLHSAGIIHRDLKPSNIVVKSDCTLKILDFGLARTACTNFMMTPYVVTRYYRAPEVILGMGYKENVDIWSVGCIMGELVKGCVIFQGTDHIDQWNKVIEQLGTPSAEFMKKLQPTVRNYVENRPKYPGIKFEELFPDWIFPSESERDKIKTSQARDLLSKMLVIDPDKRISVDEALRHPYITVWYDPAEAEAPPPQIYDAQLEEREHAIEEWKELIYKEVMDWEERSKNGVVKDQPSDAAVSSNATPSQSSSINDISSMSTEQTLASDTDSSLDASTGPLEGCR

Staphylococcus aureus [21] = test: In vivo antibacterial activity against vancomycin resistant Staphylococcus aureus infected in kunming mouse assessed as reduction in bacterial load in peritoneum at 10 mg/kg, ip measured 18 hrs after infection; assay type: functional, organism-based
Mus musculus [22] = test: Immunomodulatory activity in Kunming mouse infected with vancomycin-resistant Staphylococcus aureus assessed as effect number of neutrophil in peritoneal cavity at 10 mg/kg, ip measured upto 24 hrs by flow cytometry; assay type: functional, organism-based; conditions: time hrs <=24
Macrophage [23] = test: Induction of ROS production in mouse peritoneal macrophage by fluorescence assay; assay type: functional, tissue-based; conditions: dose 10-40 µg/ml
Macrophage [24] = test: Inhibition of LPS-induced phosphorylation of p38 in mouse peritoneal macrophage at 20 ug/ml pretreated for 1 hr followed by LPS stimulation measured after 30 mins by Western blot analysis relative to control; assay type: tissue-based; conditions: dose 20.0 µg/ml, time 1.5 hrs
Candida albicans [25] = test: Antimicrobial activity against Candida albicans IS 08030102 incubated for 16 to 18 hrs by fluorescence microplate reader analysis; assay type: functional; conditions: time 16-18 hrs
Macrophage [26] = test: Immunomodulatory activity in mouse peritoneal macrophage assessed as inhibition of LPS-induced IL-1beta level measured after 24 hrs by ELISA; assay type: functional, tissue-based; conditions: dose 5-20 µg/ml
Nakaseomyces glabratus = test: Antimicrobial activity against Candida glabrata IS 09050201 incubated for 16 to 18 hrs by fluorescence microplate reader analysis; assay type: functional; conditions: time 16-18 hrs
Staphylococcus aureus [27] = test: Antibacterial activity against vancomycin-resistant Staphylococcus aureus assessed as bacterial growth inhibition in presence of 50 mmol NaCl; assay type: functional
Staphylococcus aureus [28] = test: In vivo antibacterial activity against vancomycin resistant Staphylococcus aureus infected in kunming mouse assessed as reduction in bacterial load in peritoneum at 10 mg/kg, iv measured 18 hrs after infection; assay type: functional, organism-based
Staphylococcus aureus [29] = test: In vivo antibacterial activity against vancomycin resistant Staphylococcus aureus infected in kunming mouse assessed as reduction in bacterial load in peritoneal lavage at 10 mg/kg, ip administered 24 hrs before infection; assay type: functional, organism-based
Staphylococcus aureus [30] = test: In vivo antibacterial activity against vancomycin resistant Staphylococcus aureus infected in kunming mouse assessed as reduction in bacterial load in peritoneum at 10 mg/kg, im measured 18 hrs after infection; assay type: functional, organism-based
Staphylococcus aureus [31] = test: Antibacterial activity against vancomycin-resistant Staphylococcus aureus assessed as neutrophil-induced bacterial cell killing neutrophils pretreated with compound at 10 to 40 ug/ml; assay type: functional, organism-based; conditions: dose 10-40 µg/ml, time 15-60 min, TDE = time-dependent effect
Staphylococcus aureus [32] = test: In vivo antibacterial activity against vancomycin resistant Staphylococcus aureus infected in neutropenic kunming mouse model assessed as survival rate at 10 mg/kg, ip administered 24 hrs before infection; assay type: functional, organism-based
Escherichia coli = test: Antimicrobial activity against Escherichia coli IS 08040726 incubated for 16 to 18 hrs by fluorescence microplate reader analysis; assay type: functional; conditions: time 16-18 hrs

## CC[C@H](C)[C@H](NC(=O)[C@@H]1CCCN1C(=O)[C@@H](NC(=O)[C@@H](NC(=O)CNC(=O)CNC(=O)[C@@H](NC(=O)[C@H](Cc1ccccc1)NC(=O)[C@@H](NC(=O)[C@H](CCCCN)NC(=O)[C@@H](NC(=O)[C@H](CCCCN)NC(=O)[C@H](CCCCN)NC(=O)[C@H](Cc1ccccc1)NC(=O)[C@@H](NC(=O)[C@H](CCCCN)NC(=O)[C@H](CCCNC(=N)N)NC(=O)[C@H](Cc1ccccc1)NC(=O)CNC(=O)[C@H](CCCCN)NC(=O)[C@H](CCCCN)NC(=O)[C@@H](NC(=O)[C@H](CCCCN)NC(=O)[C@H](CCCNC(=N)N)NC(=O)[C@H](Cc1ccccc1)NC(=O)[C@H](Cc1ccccc1)NC(=O)[C@H](CCCCN)NC(=O)[C@H](CCCCN)NC(=O)[C@H](Cc1ccccc1)NC(=O)[C@H](CCCNC(=N)N)NC(=O)[C@@H](N)CCCCN)[C@@H](C)CC)[C@@H](C)CC)[C@@H](C)O)[C@@H](C)CC)[C@@H](C)CC)[C@@H](C)O)[C@@H](C)CC)C(=O)O (H-KRFKKFFRKIKKGFRKIFKKTKIFIGGTIPI-OH)
Mus musculus [1]
  Activity: Active
Enterococcus faecalis
  MIC: 1.17 mg/L (≈ 0.308 µM)
[2]
  inhibition: Dose-dependent effect
Mus musculus [3]
  Activity: Active
[4]
  Activity: Non-Toxic
[5]
  Activity: Non-Toxic
Candida albicans [6]
  Activity: 38.69%
Mus musculus [7]
  Activity: Active
Neutrophil [8]
  inhibition: inactive
Neutrophil [9]
  Activity: Dose-dependent effect
Macrophage [10]
  inhibition: Dose-dependent effect
Mus musculus [11]
  Activity: Active
Mus musculus [12]
  Activity: Active
Staphylococcus aureus [13]
  MIC: 4.96 mg/L (≈ 1.3 µM)
Staphylococcus aureus [14]
  Activity: Active
Mus musculus [15]
  Activity: Active
Staphylococcus aureus [16]
  Activity: Active
Neutrophil [17]
  inhibition: Active
Pseudomonas aeruginosa
  MIC: 1.17 mg/L (≈ 0.308 µM)
Macrophage [18]
  inhibition: Dose-dependent effect
Neutrophil [19]
  Activity: inactive
[20]
  inhibition: Dose-dependent effect
Staphylococcus aureus [21]
  Activity: Active
Mus musculus [22]
  Activity: inactive
Macrophage [23]
  Activity: Dose-dependent effect
Macrophage [24]
  inhibition: 92%
Candida albicans [25]
  MIC: 1.17 mg/L (≈ 0.308 µM)
Macrophage [26]
  inhibition: Dose-dependent effect
Nakaseomyces glabratus
  MIC: 1.17 mg/L (≈ 0.308 µM)
Staphylococcus aureus [27]
  MIC: 4.69 mg/L
Staphylococcus aureus [28]
  Activity: Active
Staphylococcus aureus [29]
  Activity: Active
Staphylococcus aureus [30]
  Activity: Active
Staphylococcus aureus [31]
  Activity: Tde
Staphylococcus aureus [32]
  Activity: inactive
Escherichia coli
  MIC: 1.17 mg/L (≈ 0.308 µM)
